Patent US20110092448A1, “Peptide Conjugate for Oral Delivery of Hydrophilic Peptide Analgesics” (METABOLIC PHARMACEUTICALS LIMITED, priority 2005, published 2011)
Where two headings read alike, the source gives them in different places.

Columns and labels:
[1] = Blood (serum) calcium levels in normal mice after EP-PTH; assay type: in vivo, mouse; settings: mouse, serum; CD-1 mice, oral vs subcutaneous; read-out: oral bioavailability based on pharmacodynamic measurements
Experimental: (§1) EP-PTH was administered orally to normal mice and the anabolic action on blood calcium levels were measured. More specifically, after an initial blood sampling at time zero, groups of normal CD-1 mice were administered EP-PTH via either oral gavage (40 μg/kg, 200 μg/kg or 400 μg/kg) or subcutaneous injection (40 μg/kg) as described in Example 3. One hour after the administration of the EP-PTH and a second blood sample was taken. The serum calcium levels of blood samples were then assessed by an enzymatic method.
(§2) The person skilled in the art will understand that the method of estimating oral availability by identifying an oral dose response curve in a pharmacodynamic animal experiment and comparing with the parenterally administered dose response curve may be used in assessing the application of the invention to other parent peptides.

[2] = tested on: blood calcium levels in normal CD-1 mice; assay: as above; assay type: in vivo, mouse; settings: oral gavage 40, 200 or 400 μg/kg, 1 h
Experimental: as §1, §2

[3] = cited from earlier work
[4] = tested on: STZ diabetic Sprague-Dawley rats with neuropathic pain; settings: rat, in vivo, po

Question: For CC[C@H](C)[C@H](NC(=O)[C@H](CCC(=O)O)NC(=O)[C@H](CO)NC(=O)[C@@H](NC(=O)[C@H](CO)NC(=O)[C@H](CCC(N)=O)NC(=O)[C@@H](NC(=O)[C@@H](NC(=O)[C@H](CCCNC(=N)N)NC(=O)[C@@H](N)CC(C)C)[C@@H](C)CC)C(C)C)C(C)C)C(=O)N[C@@H](CCC(N)=O)C(=O)N[C@@H](CC(C)C)C(=O)N[C@@H](CCSC)C(=O)N[C@@H](Cc1c[nH]cn1)C(=O)N[C@@H](CC(N)=O)C(=O)N[C@@H](CC(C)C)C(=O)NCC(=O)N[C@@H](CCCCN)C(=O)N[C@@H](Cc1c[nH]cn1)C(=O)N[C@@H](CC(C)C)C(=O)N[C@@H](CC(N)=O)C(=O)N[C@@H](CO)C(=O)N[C@@H](CCSC)C(=O)N[C@@H](CCC(=O)O)C(=O)N[C@@H](CCCNC(=N)N)C(=O)N[C@H](C(=O)N[C@@H](CCC(=O)O)C(=O)N[C@@H](Cc1c[nH]c2ccccc12)C(=O)N[C@@H](CC(C)C)C(=O)N[C@@H](CCCNC(=N)N)C(=O)N[C@@H](CCCCN)C(=O)N[C@@H](CCCCN)C(=O)N[C@@H](CC(C)C)C(=O)N[C@@H](CCC(N)=O)C(=O)N[C@@H](CC(=O)O)C(=O)N[C@H](C(=O)N[C@@H](Cc1c[nH]cn1)C(=O)N[C@@H](CC(N)=O)C(=O)N[C@@H](Cc1ccccc1)C(=O)O)C(C)C)C(C)C [EP-PTH], which bioavailability [1] is on record?
Answer: The bioavailability was about 10%.

Question: What about the “effect on blood calcium levels compared to vehicle control” value [2] of the same compound?
Answer: Its value is “dose-dependent effect”.

Question: Which oral bioavailability ([3]; earlier applications PCT/AU98/00724, PCT/AU01/00354, PCT/AU00/01362) does the source give for “AOD9604: AOD peptide derived from the C-terminal sequence of human growth hormone, earlier applications (YLRIVQCRSVEGSCGF)” here?
Answer: Its oral bioavailability is “substantially orally bioavailable”.

Question: Which oral availability [4] does the source give for “Tyr-Leu-Arg-Ile-Val-Gly-Cys-Cys-Ser-Asp-Pro-Arg-Cys-Asn-Tyr-Asp-His-Pro-Glu-Ile-Cys-NH2 [ACV3.2]” here?
Answer: The oral availability was “substantial oral availability”.

Question: What about the “analgesic effect vs vehicle group” value ([4]; 1 mg/kg) of the same compound?
Answer: Its value is “significant difference”.

Question: With “parathyroid hormone: hormone known to regulate levels of blood calcium; parent peptide of EP-PTH” as the compound, how does the oral bioavailability ([3]; reported) read?
Answer: Its oral bioavailability is “about 0.3%”.
